Laboratory results published in US6297216A, “Compounds for reversing drug resistance” (Solvo Biotechnology, priority 1997, dated 2001).
Where two headings read alike, the source gives them in different places. One block for each compound: values may come before it. Peptide text beside a SMILES is read from it. * marks the point of attachment. Cbz = O=C(OCc1ccccc1)*; Boc = CC(C)(C)OC(=O)*; OBn = c1ccc(CO*)cc1; OtBu = CC(C)(C)O*

Key:
[1] = In vivo acute and subacute toxicity; design: species or system rat; details: rats, two-week follow-up
Method: The safety of Reversins for human administration can be confirmed in appropriate animal models. For example, the in vivo acute and subacute toxicity of Reversins was examined in laboratory rats. Reversins 121 and 205 solutions were prepared and administered as follows. Type A solutions contained 50 μg/ml Reversin 121 or 205 in 20% ethanol in physiological saline. Type B solutions contained 1 mg/ml in glycerol, containing 10% ethanol. Type A solutions (0.5 ml) were administered intravenously to three laboratory rats weighing 200-250 g each (about 100-125 μg/kg) twice daily for 3 days. Type B solutions (0.5 ml) were given to similar rats (2-2.5 mg/kg) by intraperitoneal injection, twice daily for three days. Control rats received the same solutions without the Reversins.

[2] = biological target: T1, MDR1 (Homo sapiens, UniProt P08183)
From the text: (§5) The second assay is based on the measurement of fluorescent dye uptake into intact cells. […] These hydrophobic dye esters are non-fluorescent outside the cell are cleaved by intracellular esterases into hydrophilic fluorescent free acids.

[3] = tested on: KBV1 cells; experiment: Cytotoxicity of Reversin alone in multidrug-resistant KBV1 cells; assay type: cell-based, human; details: MDR1-expressing cells, FIG. 11(A)
Method: (§1) NIH 3T3 cells were cultured under standard conditions in D-MEM medium. MDR1-transfected cells (NIH MDR1 G185) were prepared and characterized for their drug-resistant properties as described (Ambdukar et al. Proc. Natl. Acad. Sci. USA 89:8472-8476, 1992; Bruggemann et al. J. Biol. Chem. 267:21020-21026, 1992; Sarkadi et al. 1992 supra). Before each experiment the cells were trypsinized, then washed and stored in D-MEM medium at 37° C. KBV1 (MDR1^+) and KB3 (MDR1^-) human tumor cells were also cultured in D-MEM, which K562 human tumor cells were grown in RPMI medium, supplemented with 10% FCS.
In these studies, adriamycin, vincristine, and vinblastine, in originally ineffective concentrations, become effectively cytotoxic in the presence of 1-10 μg/ml of Reversins 121 or 205. FIGS. 10A and 10B present such an experiment for Reversin 205 using K562 human erythroblastoid tumor cells and their adriamycin-selected multidrug-resistant subline. FIGS. 11A and 11B are similar experiments with the […] tumor cells KB3 and KBV1, the latter being a multidrug resistant subline. […] Such a collateral toxic effect (which may be due to the ATP-consuming futile functioning of the drug transporter) can be greatly advantageous in treating drug-resistant tumors.

[4] = tested on: multidrug-resistant human tumor cell lines; experiment: Enhancement of cytotoxicity of drugs in multidrug-resistant human tumor cell lines; assay type: cell-based; details: K562 MDR and KBV1 sublines, FIGS. 10-11
Method: as §1
Another method for assessing the ability of Reversins to inhibit drug resistance is to measure the cytotoxicity of drugs in multidrug-resistant human tumor cell lines. Since MDR1 normally lowers the concentration of cytotoxic agents to subtoxic concentrations by extruding them from the cell, inhibition of MDR1 would be expected to enhance cytotoxicity.
In these studies, adriamycin, vincristine, and vinblastine, in originally ineffective concentrations, become effectively cytotoxic in the presence of 1-10 μg/ml of Reversins 121 or 205. FIGS. 10A and 10B present such an experiment for Reversin 205 using K562 human erythroblastoid tumor cells and their adriamycin-selected multidrug-resistant subline. […]

[5] = biological target: T1, MDR1; remark: listed apart in the source
[6] = biological target: T1, MDR1; experiment: Flow-cytometric fluorescent dye uptake in multidrug-resistant leukocytes of a leukemic patient; assay type: cell-based; design: endogenous in cells; host or cells: white blood cells isolated from the blood of a leukemic patient; details: 5 μM, 37° C., 10 minutes, FIG. 8
Method: Fluorescence measurements were done in 60 sec scanning periods using a Cytoronabsolut instrument (Ortho Diagnostic Systems, NJ). The excitation was set to 488 nm. Green fluorescence was measured with a filter with a range of 515-548 nm, while red fluorescence was measured above 620 nm.
By using the some fluorescent dye extrusion assay described above the in vitro effects of Reversins on the multidrug-resistant leukocytes of a leukemic patient were studied. Cells were isolated by withdrawing blood from the patient, and isolating white blood cells by centrifugation. Cells can be isolated from other types of tumors by biopsy. A flow cytometer was used to measure fluorescent dye loading of individual cells, which had been previously shown to express MDR1, in the absence or presence of Reversin 205 (FIG. 8). The uptake of fluorescent dye under these conditions models the uptake of cytotoxic drugs into the tumor cells. Fluorescent dye uptake was measured at 37° C. for 10 minutes. […] Further details for the method are provided by Hollo et al., supra.

[7] = tested on: control P388 cells; experiment: Mouse P388 leukemia model, survival; assay type: in vivo; details: 1 mg/kg/day for 6 days, mice injected with control P388 cells
From the text: (§2) In vivo animal studies for the effectiveness of Reversins can be conducted using any suitable animal model system known to those skilled in the art. One example of an appropriate system is the mouse P388 leukemia model system (Tsurouo et al., supra). This animal model is widely accepted for testing the effect of cytotoxic antileukemic agents or response-modifier compounds.
(§3) Inbred (DBA×black F1) mice received 10^6 P388 leukemia cells by intraperitoneal injection. The survival of the mice was followed. The mice were injected with control P388 cells, as well as with P388 cells that had been selected under drug exposure. Drug exposure induced over-expression of the MDR1 protein (P388-MDR cells).
(§4) The mice injected with the P388 cells were treated with doxorobicin (adriamycin) in a dose of 1 mg/kg/day for 6 days after the injection of the P388 cells. […] Reversin can be administered to the animals in a dose of 2 mg/kg, a level which has no toxic effect on the control animals, as discussed above.

[8] = tested on: P388-MDR cells; experiment: Mouse P388-MDR leukemia model, survival; assay type: in vivo; details: 1 mg/kg/day for 6 days, mice injected with P388-MDR cells
From the text: as §2, §3, §4

[9] = tested on: control NIH 3T3 cells; experiment: Fluorescent dye accumulation in fibroblasts which do not overexpress MDR1; assay type: cell-based, mouse; details: fibroblasts which do not overexpress MDR1, FIG. 6
Method: NIH 3T3 cells were cultured under standard conditions in D-MEM medium. […] Before each experiment the cells were trypsinized, then washed and stored in D-MEM medium at 37° C. KBV1 (MDR1^+) and KB3 (MDR1^-) human tumor cells were also cultured in D-MEM, which K562 human tumor cells were grown in RPMI medium, supplemented with 10% FCS.
Human MDR1-transfected mouse fibroblasts and MDR1-expressing human tumor cells actively extrude the AM forms of several fluorescent indicators, lowering the level of intracellular fluorescence in cells with active multidrug transport.
Dye uptake was measured by incubating 2×10^6 cells/ml D-MEM medium at 37° C. in the presence of 0.5 μM Fura-2 AM (added in 5 mM stock solution in DMSO), then rapidly spinning the cells (15 sec, 12,000×g), and rinsing the pellet with HPM1 medium (containing 120 mM NaCl, 5 mM kcl, 0.4 mM MgCl2, 0.04 mM CaCl2, 10 mM HEPES-Na (pH 7.4), 10 mM NaHCO3, 10 mM glucose, and 5 mM Na2 HPO4). The cells were resuspended in 2 ml HPM1 and fluorescence was measured with rapid stirring in a Hitachi F-4000 fluorescent spectrophotometer. The excitation wavelength was 340 nm, and emission was measured at 410 nm. Maximum fluorescence and dye concentration were measured after the addition of 0.5% Triton X-100 and 2 mM CaCl2 to the medium. The dye concentration was calibrated based on the measurements of free acid dye fluorescence in the same instrument under identical conditions.

[10] = biological target: T1, MDR1; experiment: Fluorescent dye (Fura-2 AM) extrusion assay in MDR1-transfected NIH 3T3 fibroblasts; details: MDR1-expressing fibroblasts, FIG. 6
From the text: as §5

[11] = intraperitoneal, 2-2.5 mg/kg twice daily for three days
[12] = intravenous, about 100-125 μg/kg twice daily for 3 days

T1 sequence (P08183 whole entry): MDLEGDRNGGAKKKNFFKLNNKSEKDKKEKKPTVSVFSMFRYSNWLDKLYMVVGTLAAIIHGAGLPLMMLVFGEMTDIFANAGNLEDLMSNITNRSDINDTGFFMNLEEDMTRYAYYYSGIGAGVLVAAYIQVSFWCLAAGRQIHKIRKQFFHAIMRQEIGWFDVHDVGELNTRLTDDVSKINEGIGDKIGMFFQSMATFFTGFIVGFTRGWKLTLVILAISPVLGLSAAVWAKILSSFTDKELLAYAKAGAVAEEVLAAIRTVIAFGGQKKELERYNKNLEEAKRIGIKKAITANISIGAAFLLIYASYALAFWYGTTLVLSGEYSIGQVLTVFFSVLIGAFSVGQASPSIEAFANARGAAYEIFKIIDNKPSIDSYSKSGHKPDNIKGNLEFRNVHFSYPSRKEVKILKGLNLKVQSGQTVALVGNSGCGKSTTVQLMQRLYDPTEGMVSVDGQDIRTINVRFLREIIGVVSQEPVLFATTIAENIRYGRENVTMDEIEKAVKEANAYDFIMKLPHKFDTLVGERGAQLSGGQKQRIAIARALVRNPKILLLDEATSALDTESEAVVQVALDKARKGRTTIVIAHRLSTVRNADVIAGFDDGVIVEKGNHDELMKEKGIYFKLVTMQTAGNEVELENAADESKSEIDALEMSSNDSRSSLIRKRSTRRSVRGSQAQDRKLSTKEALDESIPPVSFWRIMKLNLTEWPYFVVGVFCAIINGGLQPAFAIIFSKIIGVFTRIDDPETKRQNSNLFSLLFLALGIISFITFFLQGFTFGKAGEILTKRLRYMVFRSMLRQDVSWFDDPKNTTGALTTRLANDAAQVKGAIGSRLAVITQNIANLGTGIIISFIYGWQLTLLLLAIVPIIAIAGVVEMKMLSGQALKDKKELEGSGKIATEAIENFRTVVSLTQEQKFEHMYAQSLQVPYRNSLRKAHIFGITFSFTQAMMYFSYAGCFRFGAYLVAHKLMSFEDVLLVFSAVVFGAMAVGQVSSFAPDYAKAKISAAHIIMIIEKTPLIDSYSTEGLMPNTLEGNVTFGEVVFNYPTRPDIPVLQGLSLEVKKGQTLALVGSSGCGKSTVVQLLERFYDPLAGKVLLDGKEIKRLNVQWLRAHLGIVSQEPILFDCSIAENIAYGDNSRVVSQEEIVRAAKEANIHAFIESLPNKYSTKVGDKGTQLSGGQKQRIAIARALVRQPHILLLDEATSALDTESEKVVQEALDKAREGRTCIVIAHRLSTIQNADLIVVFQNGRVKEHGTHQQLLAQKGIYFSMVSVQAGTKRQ

Structure (SMILES): CC(C)(C)OC(=O)N[C@@H](CC(=O)OCc1ccccc1)C(=O)N[C@@H](CCCCNC(=O)OCc1ccccc1)C(=O)OC(C)(C)C [Reversin 121, BOC-Asp(OBzl)-Lys(Z)-OtBu] (Boc-Asp(OBn)-Lys(Cbz)-OtBu)
acute or subacute toxicity [1, 11]: no acute or subacute toxicity | acute or subacute toxicity [1, 12]: no acute or subacute toxicity | inhibition of Fura2-AM dye extrusion [2]: inhibit this dye extrusion | cytotoxicity without vinblastine [3]: cytotoxic | Reversin concentration at which originally ineffective adriamycin, vincristine and vinblastine become effectively cytotoxic [4]: 1 to 10 µg/mL | half-maximal activating concentration (Ka) of MDR1-ATPase [5]: approximately 60 nM | stimulation of MDR1-ATPase [5]: greatly stimulated

Structure (SMILES): COC(=O)[C@H](CCCCNC(=O)[C@H](CCC(=O)OCc1ccccc1)NC(=O)OC(C)(C)C)NC(=O)[C@H](CCC(=O)OCc1ccccc1)NC(=O)OC(C)(C)C [Reversin 205, N^α, N^ε -bis[BOC-Glu(OBzl)]-Lys-OMe]
dye extrusion by MDR1 [6]: blocked dye extrusion | fluorescent dye uptake [6]: significantly increased | acute or subacute toxicity [1, 11]: no acute or subacute toxicity | acute or subacute toxicity [1, 12]: no acute or subacute toxicity | inhibition of Fura2-AM dye extrusion [2]: inhibit this dye extrusion | Reversin concentration at which originally ineffective adriamycin, vincristine and vinblastine become effectively cytotoxic [4]: 1 to 10 µg/mL | concentration giving strong inhibition of the MDR1-ATPase [5]: above 1 μM | half-maximal activating concentration (Ka) of MDR1-ATPase [5]: about 30 nM | stimulation of MDR1-ATPase [5]: greatly stimulated

Structure (SMILES): COc1cccc2c1C(=O)c1c(O)c3c(c(O)c1C2=O)C[C@@](O)(C(=O)CO)C[C@@H]3O[C@H]1C[C@H](N)[C@H](O)[C@H](C)O1 [adriamycin]
survival time [7]: > 30 days | prolongation of lifetime [8]: did not significantly prolong

stimulation of MDR1-ATPase [5]: stimulated
Structure (SMILES): C=C[C@H]1C[N@@]2CC[C@H]1C[C@H]2[C@H](O)c1ccnc2ccc(OC)cc12 [quinine, reference compound]

block of MDR1-specific dye-AM extrusion [10]: blocked
Structure (SMILES): [Na+].[Na+].[Na+].[O]=[V]([O-])([O-])[O-] [sodium orthovanadate]
effect on dye accumulation [9]: no effect

Structure (SMILES): COc1ccc(CCN(C)CCCC(C#N)(c2ccc(OC)c(OC)c2)C(C)C)cc1OC (centres unmarked) [verapamil]
effect on dye accumulation [9]: no effect

block of MDR1-specific dye-AM extrusion [2]: blocked | inhibition of Fura2-AM dye extrusion [2]: inhibit this dye extrusion | stimulation of MDR1-ATPase [5]: stimulated
Structure (SMILES): CC[C@]1(O)C[C@H]2CN(CCc3c([nH]c4ccccc34)[C@@](C(=O)OC)(c3cc4c(cc3OC)N(C=O)[C@H]3[C@@](O)(C(=O)OC)[C@H](OC(C)=O)[C@]5(CC)C=CCN6CC[C@]43[C@@H]65)C2)C1 [vincristine, reference compound]
effect on dye accumulation [9]: no effect
